Results on 2 compounds are retold here after article PMC4634939 (Journal of medicinal chemistry, 2015).

Test [1] in a line: Hargreaves test for analgesia. The settings on record: rat, intrathecal morphine 15 μg plus vehicle, P < 0.05.
In another test the target is T1, TLR4 (Mus musculus, UniProt Q9JHF9+Q9QUK6).
T1 sequence (Q9QUK6 26-835): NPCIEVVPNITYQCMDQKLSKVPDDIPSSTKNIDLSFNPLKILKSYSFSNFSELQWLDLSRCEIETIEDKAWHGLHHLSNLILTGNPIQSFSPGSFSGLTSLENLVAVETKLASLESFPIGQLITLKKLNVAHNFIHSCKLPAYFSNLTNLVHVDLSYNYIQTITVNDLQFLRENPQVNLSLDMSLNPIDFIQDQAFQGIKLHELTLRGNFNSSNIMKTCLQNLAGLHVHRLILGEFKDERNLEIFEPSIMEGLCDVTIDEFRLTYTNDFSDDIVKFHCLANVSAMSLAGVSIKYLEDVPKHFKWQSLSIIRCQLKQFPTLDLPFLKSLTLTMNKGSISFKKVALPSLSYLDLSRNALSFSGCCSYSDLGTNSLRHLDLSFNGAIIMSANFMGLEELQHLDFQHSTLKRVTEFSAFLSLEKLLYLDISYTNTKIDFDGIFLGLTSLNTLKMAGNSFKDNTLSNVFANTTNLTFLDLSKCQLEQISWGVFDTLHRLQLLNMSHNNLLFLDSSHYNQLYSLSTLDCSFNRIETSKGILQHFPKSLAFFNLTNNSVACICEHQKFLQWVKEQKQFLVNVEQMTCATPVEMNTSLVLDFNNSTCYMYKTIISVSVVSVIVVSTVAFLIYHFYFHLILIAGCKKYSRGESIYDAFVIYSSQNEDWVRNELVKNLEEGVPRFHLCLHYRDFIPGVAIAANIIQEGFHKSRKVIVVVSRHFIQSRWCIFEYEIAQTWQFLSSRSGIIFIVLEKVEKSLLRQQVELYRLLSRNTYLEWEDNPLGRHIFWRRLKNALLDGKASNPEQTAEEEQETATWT
T1 sequence (Q9JHF9 19-160): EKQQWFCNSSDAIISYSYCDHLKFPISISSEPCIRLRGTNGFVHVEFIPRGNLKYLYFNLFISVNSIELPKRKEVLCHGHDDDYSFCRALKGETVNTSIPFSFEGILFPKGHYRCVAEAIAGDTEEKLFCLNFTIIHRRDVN

Each structure is given as a SMILES string.

For the compound `CN1CC[C@]23c4c5ccc(O)c4O[C@H]2[C@@H](O)C=C[C@H]3[C@H]1C5` [morphine], the “analgesia to radiant heat compared to baseline” value in test [1] was “produced significant analgesia to radiant heat”.

Turning to `O=C1CC[C@]2(O)[C@@H]3Cc4ccc(O)c5c4[C@]2(CCN3CCc2ccccc2)[C@@H]1O5` [1j, (4S,4aR,7aS,12bR)-4a,9-Dihydroxy-3-phenethyl-2,3,4,4a,5,6-hexahydro-1H-4,12-methanobenzofuro[3,2-e]isoquinolin-7(7aH)-one], the “ratio of cell viability IC50 (cytotoxicity) to TLR4 antagonist activity” value at TLR4 (IC50 of viability / IC50 of NO) was ~ 100. Besides, the “TLR4 antagonist activity, times better than (+)-naltrexone” value on TLR4 (relative to (+)-naltrexone 1a, NO assay in BV-2 cells) was ~ 75 fold.
